Patent publication US12083109B2, “Neurokinin antagonists and uses thereof” (California Institute of Technology, priority 2017, dated 2024)
Entries after “also recorded” stand apart in the source; their conditions may differ.

Columns and labels:
Nk3R = target: T1, Nk3R (Mus musculus, UniProt P47937); assay: Tone fear conditioning test (freezing to conditioned tone), osanetant; type: in vivo; parameters: from tissue; host or cells: Living mice (wild-type C57Bl6/N males, Charles River); conditions: osanetant daily during two-week isolation, tested off-drug
T1 sequence (P47937 1-452): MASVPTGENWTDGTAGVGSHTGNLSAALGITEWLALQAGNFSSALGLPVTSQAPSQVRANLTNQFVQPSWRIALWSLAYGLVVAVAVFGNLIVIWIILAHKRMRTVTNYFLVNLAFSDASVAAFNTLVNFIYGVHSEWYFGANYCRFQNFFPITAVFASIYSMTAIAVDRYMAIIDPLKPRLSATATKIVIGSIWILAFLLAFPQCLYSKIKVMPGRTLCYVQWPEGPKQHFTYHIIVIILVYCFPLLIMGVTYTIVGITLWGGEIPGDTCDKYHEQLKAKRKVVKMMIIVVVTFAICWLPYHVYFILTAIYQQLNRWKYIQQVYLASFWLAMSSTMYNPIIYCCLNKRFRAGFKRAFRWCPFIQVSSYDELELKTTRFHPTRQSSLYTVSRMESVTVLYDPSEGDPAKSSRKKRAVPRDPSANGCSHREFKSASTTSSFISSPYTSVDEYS

[1] = target: T2, hM4DREADD in Tac2+ neurons (Homo sapiens, UniProt P08173, A203G/Y113C); assay: Tone fear test, CNO silencing of Tac2+ neurons (hM4DREADD); type: in vivo, mouse
T2 construct: host or cells: Tac2+ neurons of Tac2-Cre mice (dBNSTa, DMH or CeA), transduced in vivo with AAV2-EF1a-DIO-hM4D-mCherry
T2 sequence (P08173 1-479 Y113C/A203G): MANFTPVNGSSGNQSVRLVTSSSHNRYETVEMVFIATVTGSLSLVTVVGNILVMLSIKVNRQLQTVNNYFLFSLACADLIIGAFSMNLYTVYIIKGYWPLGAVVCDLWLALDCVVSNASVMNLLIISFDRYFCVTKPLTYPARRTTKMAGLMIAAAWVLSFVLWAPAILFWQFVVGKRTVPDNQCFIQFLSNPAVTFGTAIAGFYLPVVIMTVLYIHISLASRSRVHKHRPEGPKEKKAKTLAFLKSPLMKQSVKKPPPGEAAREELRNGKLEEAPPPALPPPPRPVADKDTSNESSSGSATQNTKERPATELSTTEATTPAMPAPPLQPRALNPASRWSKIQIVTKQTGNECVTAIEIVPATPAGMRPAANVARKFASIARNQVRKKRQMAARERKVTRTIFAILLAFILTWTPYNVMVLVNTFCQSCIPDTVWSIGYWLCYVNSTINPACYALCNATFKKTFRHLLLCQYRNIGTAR
Description: The protocol for tone trace fear conditioning was performed as previously described (Cushman et al., 2014; incorporated by reference in its entirety) using fear conditioning boxes previously described in detail (Haubensak et al., 2010; Kunwar et al., 2015; incorporated by reference in their entirety). Briefly, mice were transported in squads of four on a white cart to a novel behavioral testing room containing 4 sound-attenuating fear-conditioning chambers (Med Associates). This “training context” was comprised of flat grid flooring (wired to a shock generator and scrambler for footshock delivery, Med Associates), houselights, and the presence of an internal fan for background noise. Chambers were sprayed with 70% Simple Green solution on the underlying chamber pan to generate a unique contextual scent and chambers were cleaned with 70% EtOH between squads. Trace fear conditioning consisted of a 3 minute baseline period followed by 3 tone-shock trials consisting of a 20 second tone conditional stimulus (CS; 75 dB, 2800 Hz), a 20 second trace interval and a 2 second footshock unconditional stimulus (US; 0.7 mA). The inter-trial interval (ITI) between trials was 60 seconds. Mice remained in the chambers an additional 60 seconds before being transported back to the vivarium. The following day, mice were transported in fresh cardboard boxes to a novel behavioral testing room consisting of 4 distinct fear-conditioning boxes to test for tone fear. […] Freezing behavior during the baseline period as well as during each tone presentation (“during”) and trace interval (“post”) were assessed as previously described (Zelikowsky et al., 2014; incorporated by reference in its entirety) using automated near-infrared video tracking equipment and computer software (VideoFreeze, Med Associates). Shock reactivity (motion, arbitrary units) was measured during the 2 second shock US as well as the 3 seconds immediately following. […]

| SMILES | persistent freezing to fear conditioned tone (Nk3R) | acute (during) freezing to conditioned tone ([1]; SIS Tac2-Cre mice, hM4DREADD in CeA, CNO 5 mg/kg i.p.) | persistent (post) freezing to conditioned tone ([1]; SIS Tac2-Cre mice, hM4DREADD in dBNSTa, CNO 5 mg/kg i.p.) | tone fear test freezing in mCherry control virus mice ([1]; SIS mice, AAV2-EF1a-DIO-mCherry control virus in dBNSTa (no hM4DREADD), CNO vs vehicle) |
| --- | --- | --- | --- | --- |
| CC(=O)N(C)C1(c2ccccc2)CCN(CCC[C@]2(c3ccc(Cl)c(Cl)c3)CCCN(C(=O)c3ccccc3)C2)CC1 [osanetant, N-(1-{3-[(3R)-1-benzoyl-3-(3,4-dichlorophenyl)piperidin-3-yl]propyl}-4-phenylpiperidin-4-yl)-N-methylacetamide] | prevented |  |  |  |
| C[N+]1([O-])CCN(C2=Nc3cc(Cl)ccc3Nc3ccccc32)CC1 [CNO, clozapine-N-oxide] |  | blocked; also recorded: suppressed | blocked; also recorded: selectively attenuated | had no effect; also recorded: did not observe any effects; also recorded: no significant effects |
